In series [1] the test system is human breast cancer MCF-7 cells. Put plainly: Clonogenic survival assay with radiation (radiosensitization) in MCF-7 cells. The series is classed as cell-based. How it is done:
(§1) Clonogenic Survival Assay. […] 18–24 h prior to experimental studies.
(§2) Colonies consisting of >50 cells were counted.
(§3) Irradiation of Cells. Drug-treated and control cells in medium were irradiated using a cobalt-60 source (Eldorado 8; Theratronics, Canada) at a dose rate of 105 cGy/min.
(§4) Analysis of Survival Curves. Survival curves were corrected for cytotoxicity induced by drug alone treatment. Sensitization enhancement ratios (SERs) and standard deviations for survival curves were determined at 10% cell survival. Each SER was calculated by dividing the radiation dose to induce 10% cell survival in the absence of radiosensitizer with the radiation dose to induce 10% cell survival in the presence of radiosensitizer.
The updated programs developed by Dr. N. Albright (San Rafael, Calif.) (Albright, N., Radiat. Res., 112:331–340 (1987)) were used for curve fitting for MCF-7 cells with the linear quadratic (LQ) and the single hit multi-target (SHMT) models. Both the LQ and SHMT models gave qualitatively good fits. The fit with the SHMT model was used for the present study.

Series [2] has the same test system. Put plainly: Clonogenic survival assay, drug alone (cytotoxicity) in MCF-7 cells. The series is classed as cell-based. To be noted: 1 μM camptothecin for 1 h, read graphically from FIG. 2. How it is done:
as §1, §2

Series [3] deals with T1, covalent topoisomerase-DNA cross-links in CHO cells (Cricetulus griseus, UniProt Q07050, S505G).
T1 construct: endogenous in cells; host or cells: Chinese hamster ovary CHO cells
T1 sequence (Q07050 2-767 S505G): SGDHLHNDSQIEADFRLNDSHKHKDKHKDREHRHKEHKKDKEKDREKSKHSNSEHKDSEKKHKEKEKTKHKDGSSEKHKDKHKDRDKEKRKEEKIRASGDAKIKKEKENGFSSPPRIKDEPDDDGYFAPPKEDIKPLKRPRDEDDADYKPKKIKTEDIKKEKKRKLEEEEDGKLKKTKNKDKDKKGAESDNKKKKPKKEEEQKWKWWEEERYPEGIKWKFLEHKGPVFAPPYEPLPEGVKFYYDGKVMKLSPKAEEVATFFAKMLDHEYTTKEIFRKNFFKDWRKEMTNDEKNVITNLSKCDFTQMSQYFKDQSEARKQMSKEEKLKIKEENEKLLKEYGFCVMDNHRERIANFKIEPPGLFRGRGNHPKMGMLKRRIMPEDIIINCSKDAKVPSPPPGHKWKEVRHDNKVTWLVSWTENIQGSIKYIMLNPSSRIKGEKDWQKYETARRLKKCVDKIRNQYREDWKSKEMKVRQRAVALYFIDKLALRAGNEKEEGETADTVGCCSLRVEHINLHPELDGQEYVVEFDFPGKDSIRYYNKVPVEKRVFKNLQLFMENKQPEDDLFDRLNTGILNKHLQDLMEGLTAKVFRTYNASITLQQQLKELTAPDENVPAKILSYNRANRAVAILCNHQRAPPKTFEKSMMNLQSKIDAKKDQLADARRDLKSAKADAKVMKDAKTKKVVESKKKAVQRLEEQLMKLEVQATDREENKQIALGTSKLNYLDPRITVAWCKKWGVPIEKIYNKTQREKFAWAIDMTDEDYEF
Put plainly: In vivo K+-SDS co-precipitation assay for protein-DNA cross-links. The series is classed as cell-based, Chinese hamster. To be noted: FIG. 5. The text has this:
In vivo K^+-SDS co-precipitation assay for protein-DNA cross-links. The K^+-SDS co-precipitation assay as described previously (Chen, Y. N., et al., J. Biol. Chem., 265:10073–10080 (1990)) was used to quantify the formation of covalent topoisomerase-DNA cross-links in drug-treated cells.
Briefly, the DNA in logarithmic growing Chinese hamster CHO cells was overnight-labeled in medium containing 1 μCi/ml of [mehtyl-^3H] thymidine. These cells were then trypsinized and diluted in fresh medium before aliquoted into a 24-well plate. After overnight incubation, the labeled cells were treated with various concentrations of drugs for 30 min, washed with phosphate-buffered saline once, and lysed by adding 1 ml of prewarmed lysis solution (1.25% SDS, 5 mM EDTA, 0.4 mg/ml salmon sperm DNA, pH 8.0, 65° C.).
Following shearing chromosomal DNA by passing the lysate through a 19-gauge needle, the sample was transferred to a tube containing 0.25 ml of 325 mM KCl. The sample was vortexed vigorously for 10 s, cooled on ice for 10 min and centrifuged at 3000 rpm for 10 min at 4° C.
The pellet was then resuspended in 1 ml of a wash solution (100 mM KCl, 1 mM EDTA, 0.1 mg/ml salmon sperm DNA, 10 mM Tris-HCl, pH 8.0) and placed at 65° C. for 10 min with occasional mixing. The sample was again cooled on ice for 10 min and centrifuged at 3000 rpm for 10 min at 4° C. After the pellet from each sample was washed again, the pellet was finally resuspended in 0.2 ml of 65° C. water and added to 5 ml of scintillation fluid to determine radioactive counts.
The background precipitable counts were obtained by treating the lysate with proteinase K (400 μg/ml) at 65° C. for 2 h. Data are arithmetic means (±SD) of three determinations, and the background counts have been subtracted.

Series [4] concerns camptothecin-resistant, TOP1 mutant DC3F/C-10 cells. On the procedure: Clonogenic Survival Assay. For a typical clonogenic survival experiment, stock cultures of exponentially growing cells were trypsinized, rinsed, and plated (5×10^5 cells per dish for DC3F and DC3F/C-10 cells; 1×10^6 cells for MCF-7 cells) into 100-mm petri dishes and incubated at 37° C. 18–24 h prior to experimental studies.
Following various experimental protocols with drug incubation and irradiation, cells were trypsinized, rinsed, counted, and plated for […] colony formation. Depending on the anticipated survival level, 10^2 to 10^5 cells were plated per dose point. When higher cell numbers were plated, large petri dishes were used to avoid possible cell-density effect (100-mm instead of 60-mm petri dishes for cell number≧5×10^4). Depending on the treatment protocols, an equivalent amount of DMSO was added into each of the control radiation alone dishes (final DMSO concentration <0.1%).
Following seven to fourteen days of incubation, colonies were fixed with methanol/acetic acid (3:1), stained with crystal violet. Colonies consisting of >50 cells were counted. All survival points were done in triplicate, and experiments were conducted a minimum of two times. Error bars shown in the figures represent standard deviations (SD) and are shown when larger than the symbol.
The DC3F/C-10 cell line was selected from the Chinese Hamster lung fibroblast DC3F cell line in the presence of 1 μM of camptothecin (Albright, N., Radiat. Res., 112:331–340 (1987), and Chen, Y. N., J. Biol. Chem., 265:10073–10080 (1990)). […] In an attempt to determine the importance of TOP1 in mediating the cytotoxic and radiosensitizing effects by INDO derivatives, clonogenic survival assays were performed in DC3F and DC3F/C10 cells.

For the next series, the system named is DC3F cells. The series can be described thus: Radiosensitization in DC3F cells (clonogenic survival with radiation). The series is classed as cell-based, Chinese hamster. How it is done: as §1, §2, §3, §4
Series [5] has as its system TOP1 mutant DC3F/C10 cells. The series can be described thus: Radiosensitization in DC3F/C10 cells (clonogenic survival with radiation). The series is classed as cell-based, Chinese hamster. To be noted: DC3F/C10 cells. On the procedure: as §1, §2, §3, §4
The target of the next series is T2, purified human TOP1 (Homo sapiens, UniProt P11387).
T2 construct: purchased TopoGEN, Inc. (Columbus, Ohio)
T2 sequence (P11387 1-765): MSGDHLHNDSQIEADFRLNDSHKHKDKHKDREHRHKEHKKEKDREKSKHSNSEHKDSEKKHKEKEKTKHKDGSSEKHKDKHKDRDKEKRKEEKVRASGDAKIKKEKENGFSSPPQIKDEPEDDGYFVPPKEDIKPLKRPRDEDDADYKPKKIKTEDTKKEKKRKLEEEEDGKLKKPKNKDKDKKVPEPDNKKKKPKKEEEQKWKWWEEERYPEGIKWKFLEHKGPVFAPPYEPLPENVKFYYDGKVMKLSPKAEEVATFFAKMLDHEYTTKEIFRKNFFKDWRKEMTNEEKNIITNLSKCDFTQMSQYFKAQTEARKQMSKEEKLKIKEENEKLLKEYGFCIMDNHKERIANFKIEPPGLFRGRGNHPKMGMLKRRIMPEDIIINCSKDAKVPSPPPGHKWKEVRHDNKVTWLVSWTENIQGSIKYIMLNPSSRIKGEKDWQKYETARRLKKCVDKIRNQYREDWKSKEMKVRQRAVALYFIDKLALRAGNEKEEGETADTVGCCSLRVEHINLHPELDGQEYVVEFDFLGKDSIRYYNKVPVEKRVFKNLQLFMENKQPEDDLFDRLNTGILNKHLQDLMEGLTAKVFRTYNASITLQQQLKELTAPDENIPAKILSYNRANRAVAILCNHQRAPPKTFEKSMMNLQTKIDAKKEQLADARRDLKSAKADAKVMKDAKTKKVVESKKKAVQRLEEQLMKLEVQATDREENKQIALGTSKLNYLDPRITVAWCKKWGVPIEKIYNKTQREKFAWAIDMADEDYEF
Put plainly: In vitro drug-stimulated TOP1 cleavage assay (pHOT1 plasmid nicking). The note with it: purified human TOP1; FIG. 4, 4C. The series is classed as biochemical. On the procedure:
In vitro drug-stimulated TOP1 cleavage assay. Drug-stimulated DNA cleavage assay using purified human TOP1 was performed according to the protocol provided by TopoGEN Inc. (Columbus, Ohio) with modifications.
Briefly, supercoiled pHOT1 plasmid DNA (0.2 μg) was incubated with 1 unit of human TOP1 in cleavage buffer (50 mM Tris, pH 7.8, 50 mM KCl, 10 mM MgCl2, 1 mM dithiothreitol, 1 mM EDTA) in the presence of varying concentrations of the drug under study. Following a 30-min incubation at 37° C., the reactions were terminated by adding SDS to 1.0% and proteinase K to 200 μg/ml. The proteinase K treatment continued at 37° C. for 1 h. The sample was then mixed with loading dye (containing sucrose and bromphenol blue) and separated in 1% agarose gel in 0.08 M Tris-phosphate, 0.008 M EDTA, pH 8.0 buffer at room temperature for 16 h.
The gel was initially stained with ethidium bromide ([…]), washed and photographed under UV light. In order to separate the “nicked” from the “relaxed” DNA population, the gel was further run for 4 h in the presence of ethidium bromide before being photographed again under UV light. The photograph was scanned and the intensity of the nicked DNA of each lane was measured using the ImageJ program obtained from the National Institutes of Health (web site: rsb.info.nih.gov/ij/). The intensity of the nicked band of each lane was plotted after the background intensity (pHOT1+TOP1 lane) was subtracted.

Structures are written as SMILES. Bounds are passed on as bounds.

As for `CC[C@@]1(O)C(=O)OCc2c1cc1n(c2=O)Cc2cc3ccccc3nc2-1` [Camptothecin, Camptothecin lactone, reference compound], the “ER (SER per footnote c, sensitization enhancement ratio)” value in series [1] (1 μM camptothecin 1 h before radiation, at 10% survival) is 1.4. Besides, the “Dq (width of the shoulder of the radiation survival curve)” value in series [1] (SHMT model fit, FIG. 3B) was “drastically reduced”. Besides, the “RT dose (Gy) at 10% survival” value in series [1] (pre-treated 1 μM camptothecin 1 h, rinsed, then radiation) is 5.0 Gy. The “Percent of cell survival without RT” value in series [2] is recorded as 72 ± 5%. Further, the “Potency in stabilizing DNA-protein crosslinks (rank order)” value in series [3] is on record as “most potent”. Besides, the “Relative resistance of DC3F/C10 cells to the cytotoxic effect” value in series [4] (LD50 of DC3F/C10 divided by LD50 of DC3F, camptothecin 30-min treatment) is reported as “more than 12 fold”. Also, the “RR (relative resistance)” value in series [4] (LD50 of DC3F/C-10 cells divided by LD50 of DC3F cells) is reported as greater than 12. The “Radiation Dose (Gy) at 10% Survival” value in the series on DC3F cells (0.1 μM) is 4.3 Gy; in the series on DC3F cells (1.0 μM) it was 3.9 Gy; in series [5] (1.0 μM) it was 5.2 Gy; in series [5] (10 μM) it was 4.6 Gy. Besides, the SER in the series on DC3F cells (0.1 μM) is on record as 1.4; in the series on DC3F cells (1.0 μM), 1.5; in series [5] (1.0 μM) it was 1.0; in series [5] (10 μM), 1.1.
On to `COc1cc([C@@H]2c3cc4c(cc3[C@@H](O[C@@H]3O[C@@H]5CO[C@@H](C)O[C@H]5[C@H](O)[C@H]3O)[C@H]3COC(=O)[C@H]23)OCO4)cc(OC)c1O` [etoposide, reference compound], for which the “Potency in inducing TOP1-mediated DNA cleavage (nicking of pHOT1)” value at purified human TOP1 is recorded as “no activity in inducing TOP1-mediated nicking of DNA”.
